Laboratory results: ChEMBL document CHEMBL4152208, “Synthesis and structure-activity relationships of quinolinone and quinoline-based P2X7 receptor antagonists and their anti-sphere formation activities in glioblastoma cells” (Eur J Med Chem, 2018)
Calls of active or inactive are those of the source. No cut-off for these calls is given here.

Legend:
[1] = target: T1, P2X purinoceptor 1 (Homo sapiens) (UniProt P51575); test: Antagonist activity at human P2X1 receptor expressed in 1321N1 cells assessed as inhibition of ATP-induced calcium flux at 1 uM measured for 30 secs at 0.4 secs intervals by Flou-4-AM dye based fluorescence assay relative to control; assay type: cell-based
T1 sequence (whole entry): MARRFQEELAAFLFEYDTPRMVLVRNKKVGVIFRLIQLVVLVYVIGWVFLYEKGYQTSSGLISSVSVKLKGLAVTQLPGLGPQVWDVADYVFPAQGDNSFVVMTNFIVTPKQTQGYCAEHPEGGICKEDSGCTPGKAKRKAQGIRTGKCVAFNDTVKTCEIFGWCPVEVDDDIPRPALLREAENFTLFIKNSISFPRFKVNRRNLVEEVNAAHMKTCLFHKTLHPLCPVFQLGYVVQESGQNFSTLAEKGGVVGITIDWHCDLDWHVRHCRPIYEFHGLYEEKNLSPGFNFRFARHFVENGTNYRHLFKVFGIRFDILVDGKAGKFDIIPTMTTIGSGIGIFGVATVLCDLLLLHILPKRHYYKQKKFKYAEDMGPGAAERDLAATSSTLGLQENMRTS

P2X purinoceptor 3 = target: T2, P2X purinoceptor 3 (Homo sapiens, UniProt P56373); test: Antagonist activity at human P2X3 receptor expressed in 1321N1 cells assessed as inhibition of ATP-induced calcium flux measured for 30 secs at 0.4 secs intervals by Flou-4-AM dye based fluorescence assay; assay type: cell-based
T2 sequence (P56373 whole entry): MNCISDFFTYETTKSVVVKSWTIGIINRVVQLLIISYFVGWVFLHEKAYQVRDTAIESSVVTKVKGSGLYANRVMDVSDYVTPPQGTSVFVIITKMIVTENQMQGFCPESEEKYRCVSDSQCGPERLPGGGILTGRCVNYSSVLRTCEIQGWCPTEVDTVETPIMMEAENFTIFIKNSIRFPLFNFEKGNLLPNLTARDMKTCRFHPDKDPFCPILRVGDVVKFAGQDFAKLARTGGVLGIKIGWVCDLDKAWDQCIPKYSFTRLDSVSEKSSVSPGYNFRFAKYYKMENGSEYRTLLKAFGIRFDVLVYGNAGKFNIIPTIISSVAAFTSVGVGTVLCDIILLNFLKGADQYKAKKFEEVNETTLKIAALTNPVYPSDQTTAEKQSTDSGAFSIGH

Homo sapiens [2] = species: Homo sapiens; test: Antiproliferative activity against human TS15-88 cells at 50 uM after 24 hrs by MTS assay; assay type: functional, cell-based
Homo sapiens [3] = species: Homo sapiens; test: Inhibition of neurosphere formation in human TS15-88 cells assessed as decrease in surface area of sphere at 50 uM after 5 days by microscopic analysis; assay type: functional, cell-based
[4] = Reduction of […] mRNA expression in human TS15-88 cells after 72 hrs by qRT-PCR analysis relative to control; assay type: functional; design: scale not given: the % may be the effect or the level left
Homo sapiens [5] = species: Homo sapiens; test: Effect on SOX2 mRNA expression in human TS15-88 cells after 72 hrs by qRT-PCR analysis; assay type: functional, cell-based
[6] = Drug level in zebrafish blood at 10 mg/kg, po administered via gavage measured 0.5 hrs post compound administration by LC-MS/MS analysis; assay type: ADME, organism-based, Danio rerio; settings: read-out: Drug uptake
[7] = Metabolic stability in human liver microsomes assessed as parent compound remaining at 1 uM up to 30 mins in presence of NADPH by LC-MS/MS analysis; assay type: ADME, microsome; settings: read-out: Stability

O=C(CC12CC3CC(CC(C3)C1)C2)Nc1cccc2nc(Cl)ccc12
inhibition [1]: 13% | IC50 (P2X purinoceptor 3): Not Active | Activity (Homo sapiens [2]): Active | inhibition (Homo sapiens [3]): Active | Activity [4]: 41% | Activity (Homo sapiens [5]): inactive | concentration at 0.5 h [6]: 235 ng/mL | remaining at 0.5 h, 1 µM [7]: 0.04%
